Experimental data as given in PMC5384001 (Scientific Reports, 2017).

Key:
GluD2-Lc-(HS2)GluN1 = biological target: T1, GluD2-Lc-(HS2)GluN1 (Rattus norvegicus, UniProt Q63226, A654T/A766F/D767R/N763E/R768S/T764L/V761T/V765F); experiment: Two-electrode voltage clamp in Xenopus oocytes, inhibition of spontaneous currents; format: cell-based
T1 construct: the function of full-length receptors as well, we introduced them into the GluD2 lurcher mutant (GluD2-Lc); expressed in transfected cells; host or cells: Xenopus laevis oocytes injected with cRNA
T1 sequence (Q63226 24-1007 A654T/V761T/N763E/T764L/V765F/A766F/D767R/R768S): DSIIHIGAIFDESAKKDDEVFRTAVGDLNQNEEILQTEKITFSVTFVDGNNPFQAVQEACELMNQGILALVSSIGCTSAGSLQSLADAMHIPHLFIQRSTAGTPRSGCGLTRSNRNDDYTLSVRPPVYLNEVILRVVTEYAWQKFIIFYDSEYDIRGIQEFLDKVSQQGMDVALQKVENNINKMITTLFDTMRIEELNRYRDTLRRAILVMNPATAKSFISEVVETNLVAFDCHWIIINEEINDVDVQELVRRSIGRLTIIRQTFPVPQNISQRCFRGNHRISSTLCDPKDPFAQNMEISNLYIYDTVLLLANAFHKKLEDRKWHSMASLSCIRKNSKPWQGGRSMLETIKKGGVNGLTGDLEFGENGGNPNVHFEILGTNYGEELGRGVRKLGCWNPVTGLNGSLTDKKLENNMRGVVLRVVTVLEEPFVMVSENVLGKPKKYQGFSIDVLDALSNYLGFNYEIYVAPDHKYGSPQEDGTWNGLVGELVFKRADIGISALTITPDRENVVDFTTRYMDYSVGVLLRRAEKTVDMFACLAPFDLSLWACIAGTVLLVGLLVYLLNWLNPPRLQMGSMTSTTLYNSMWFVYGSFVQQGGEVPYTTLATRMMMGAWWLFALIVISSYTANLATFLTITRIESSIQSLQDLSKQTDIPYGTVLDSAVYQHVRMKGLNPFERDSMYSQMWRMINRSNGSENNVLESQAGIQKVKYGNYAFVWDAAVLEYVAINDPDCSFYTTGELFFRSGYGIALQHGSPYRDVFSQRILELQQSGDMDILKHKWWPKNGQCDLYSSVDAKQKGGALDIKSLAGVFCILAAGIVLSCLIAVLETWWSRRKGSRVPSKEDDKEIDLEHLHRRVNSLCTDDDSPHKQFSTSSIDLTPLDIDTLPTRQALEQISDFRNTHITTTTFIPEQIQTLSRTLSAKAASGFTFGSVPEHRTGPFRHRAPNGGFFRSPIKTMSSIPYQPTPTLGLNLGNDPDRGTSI
Text: All cDNAs for expression in Xenopus oocytes were cloned into the vector pSGEM[30]. Point mutants of GluD2-Lc were constructed by overlap extension PCR with mutagenic oligonucleotide primers. The GluD2-Lc-(H)GluN1 chimera was constructed by transferring the S1- and S2-encoding sequences from GluD2-LBD-(H)GluN1 to GluD2-Lc via overlap extension PCR using tail primers. The S1 and S2 sequences were transferred separately, yielding GluD2-Lc-(HS1)GluN1 and GluD2-Lc-(HS2)GluN1 constructs. GluD2-Lc-(H)GluN1 was then produced from these by another overlap extension PCR. Complementary RNA (cRNA) for injection into oocytes was synthesised from 1 μg of linearised template DNA with the mMESSAGE mMACHINE in vitro transcription kit (Ambion, Austin, TX, USA).
Oocytes were obtained by surgically removing parts of the ovaries from Xenopus laevis (Nasco, Fort Atkinson, WI, USA) anaesthetised with 1.5 g/L 3-aminobenzoic acid ethylester (Sigma, Taufkirchen, Germany). The ovary clippings were digested with 784 U/mL (4 mg/mL) collagenase type I (Worthington, Lakewood, NJ, USA) in Ca^2+-free Barth’s solution (88 mM NaCl, 1.1 mM KCl, 2.4 mM NaHCO3, 0.8 mM MgSO4, 15 mM HEPES-NaOH, pH 7.6) with gentle agitation for 1.5–2 h at 20 °C to remove the follicular cell layer. After stopping the collagenase digestion by washing with Barth’s solution (88 mM NaCl, 1.1 mM KCl, 2.4 mM NaHCO3, 0.3 mM Ca(NO3)2, 0.4 mM CaCl2, 0.8 mM MgSO4, 15 mM HEPES-NaOH, pH 7.6), defolliculated oocytes of stages V and VI were selected and maintained at 16 °C in Barth’s solution supplemented with 100 μg/mL gentamicin, 40 μg/mL streptomycin, and 63 μg/mL penicillin. Oocytes were injected with 11 ng cRNA (10 ng of each cRNA for co-expression of GluN1 and GluN2A) using a nanoliter injector (WPI, Sarasota, FL, USA). Four days after cRNA injection, current responses were recorded under voltage clamp at –70 mV with a Turbo Tec-10CD amplifier (npi electronic, Tamm, Germany) controlled by Patchmaster software (HEKA, Lambrecht, Germany). Currents were filtered with a 20 Hz low-pass filter and then digitised with a sampling rate of 50 Hz. Recording electrodes were pulled from borosilicate glass (Hilgenberg, Malsfeld, Germany) with an L/M-3P-A vertical pipette puller (List-Medical), filled with 3 M KCl, and had resistances of 0.5–5 MΩ (voltage electrode) or 0.5–1.5 MΩ (current electrode). Recordings were performed in a 50 μL chamber under constant superfusion with extracellular solution at a flow rate of 3–5 mL/min. […] Finally, Ba-NFR and then NMDGR were applied again to check for reversibility.

GluN1 LBD = biological target: GluN1 LBD; design: method as in PMID 12805203; details: cited from earlier work

N[C@H](CO)C(=O)O [D-serine]
D-serine efficacy Mean ± SEM (GluD2-Lc-(HS2)GluN1; fraction of spontaneous current inhibited by D-serine): 0.9 ± 0.4%
sensitivity to D-serine (GluD2-Lc-(HS2)GluN1; inhibition of spontaneous currents): insensitive
Kd (GluN1 LBD): 7 µM
